According to patent US20250304549A1, “HYDROXYAMIDE DERIVATIVE AND USE THEREOF” (SICHUAN HUIYU PHARMACEUTICAL CO., LTD., priority 2022, published 2025):
Where a name gives a salt, the structure may show the parent alone.

Columns and labels:
NCI-H1417 cells = assay: In vitro cell inhibition assay - H1417 cell proliferation (CellTiter-Glo); type: cell-based; conditions: Homo sapiens, NCI-H1417, H1417 small cell lung cancer cell proliferation
How it was run: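 Cells exposed to 8 compound concentrations (5-fold dilutions) in BEGM with 10% FBS for 7 days at 37° C., 5% CO2. Viable cells measured by CellTiter-Glo luminescence; inhibition versus no-inhibitor and no-cell controls, IC50 fitted.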

NCI-H526 cells = assay: In vitro cell inhibition assay - NCI-H526 cell proliferation (CellTiter-Glo); type: cell-based; conditions: Homo sapiens, NCI-H526, 120 h, H526 small cell lung cancer cell proliferation, 5 days
How it was run: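 NCI-H526 cells plated at 1×10^3 per well overnight, then treated with 8 concentrations (5-fold dilutions) in RPMI-640 with 10% FBS for 5 days at 37° C., 5% CO2. Viable cells quantified by CellTiter-Glo luminescence; IC50 fitted from inhibition rates relative to no-inhibitor and no-cell controls.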

NCI-H69 cells = assay: In vitro cell inhibition assay - NCI-H69 cell proliferation (CellTiter-Glo); type: cell-based; conditions: Homo sapiens, NCI-H69, H69 small cell lung cancer cell proliferation
How it was run: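 7-day exposure at 37° C., 5% CO2 to compounds serially diluted 5-fold (8 concentrations) in RPMI-640 containing 20% FBS, after overnight attachment at 1×10^3 cells/well. Read-out: CellTiter-Glo luminescence (RLU); IC50 from curve fit of inhibition rate.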

HDAC1 = HDAC1 (Homo sapiens (Human), UniProt Q13547); assay: In vitro enzyme inhibition assay - HDAC (HDAC-Glo I/II), HDAC1; type: biochemical; conditions: read-out: HDAC IC50 (nM) HDAC 1
How it was run: (§1)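 Inhibition was measured with the HDAC-Glo I/II luminescent assay, testing compound as an 8-point, 5-fold dilution series from a 1 mM DMSO stock. Luminescence (RLU) was normalized to no-inhibitor and no-enzyme controls, and IC50 was derived by four-parameter variable-slope fitting.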

pan-HDAC = assay: In vitro enzyme inhibition assay - HDAC (HDAC-Glo I/II), pan-HDAC; type: biochemical
How it was run: as §1

DU145 cells = assay: In vitro cell inhibition assay - DU145 cell proliferation (CellTiter-Glo); type: cell-based; conditions: Homo sapiens, DU-145, Du145 prostate cancer cell proliferation
How it was run: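 Viability read-out was CellTiter-Glo luminescence after a 6-day, 37° C exposure of DU145 cells (1×10^3/well, 10% FBS RPMI-640) to 8 compound concentrations in 5-fold steps.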

HDAC8 = HDAC8 (Homo sapiens (Human), UniProt Q9BY41); assay: In vitro enzyme inhibition assay - HDAC (HDAC-Glo I/II), HDAC8; type: biochemical; conditions: read-out: HDAC IC50 (nM) HDAC 8
How it was run: as §1

LSD1 = LSD1 (Homo sapiens (Human), UniProt O60341); assay: In vitro enzyme inhibition assay - LSD1 (HTRF); type: biochemical

HDAC1, sequence (Q13547 whole entry): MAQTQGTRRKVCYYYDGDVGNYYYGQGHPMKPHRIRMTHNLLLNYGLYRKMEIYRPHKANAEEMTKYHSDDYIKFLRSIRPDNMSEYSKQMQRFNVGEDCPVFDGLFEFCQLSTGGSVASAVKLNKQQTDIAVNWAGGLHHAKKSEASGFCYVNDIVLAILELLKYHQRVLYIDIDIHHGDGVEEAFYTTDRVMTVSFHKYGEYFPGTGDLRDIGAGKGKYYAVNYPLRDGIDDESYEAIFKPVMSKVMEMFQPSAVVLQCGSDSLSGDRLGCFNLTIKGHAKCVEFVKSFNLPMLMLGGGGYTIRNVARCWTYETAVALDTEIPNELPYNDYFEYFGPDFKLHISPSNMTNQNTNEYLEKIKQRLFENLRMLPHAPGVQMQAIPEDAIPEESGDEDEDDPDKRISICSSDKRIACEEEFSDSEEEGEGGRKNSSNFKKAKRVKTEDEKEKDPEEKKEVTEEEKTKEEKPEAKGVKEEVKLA
HDAC8, sequence (Q9BY41 whole entry): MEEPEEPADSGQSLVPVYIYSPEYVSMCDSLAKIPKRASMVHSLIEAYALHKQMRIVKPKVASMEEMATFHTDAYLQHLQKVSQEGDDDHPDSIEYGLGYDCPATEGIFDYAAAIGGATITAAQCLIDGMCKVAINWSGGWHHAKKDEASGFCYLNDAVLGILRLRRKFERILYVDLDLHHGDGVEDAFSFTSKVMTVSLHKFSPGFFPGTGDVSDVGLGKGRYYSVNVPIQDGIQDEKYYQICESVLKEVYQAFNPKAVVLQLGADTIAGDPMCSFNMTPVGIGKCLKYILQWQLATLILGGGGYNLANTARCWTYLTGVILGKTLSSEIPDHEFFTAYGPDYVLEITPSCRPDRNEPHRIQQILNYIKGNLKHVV

| SMILES | IC50 (NCI-H1417 cells) [nM] | IC50 (NCI-H526 cells) [nM] | IC50 (NCI-H69 cells) [nM] | IC50 (HDAC1) [nM] | IC50 (pan-HDAC) [nM] | IC50 (DU145 cells) [nM] | IC50 (HDAC8) [nM] | IC50 (LSD1) [nM] |
| --- | --- | --- | --- | --- | --- | --- | --- | --- |
| COc1ccc(-c2cnc(N3CCC(NCc4cnc(/C=C/C(=O)NO)nc4)CC3)c(C#N)c2-c2ccc(C#N)c(F)c2)cc1O [Example 106, (E)-3-(5-(((1-(3-Cyano-4-(4-cyano-3-fluorophenyl)-5-(3-hydroxy-4-methoxyphenyl)pyridin-2-yl)piperidin-4-yl)amino)methyl)pyrimidin-2-yl)-N-hydroxyacrylamide formate] | 3.29 | 7.09 | 3.48 | 3.81 | 4.85 | 13.6 | 13.1 | 2.62 |
| N#Cc1ccc(-c2c(-c3ccc(OC(F)(F)F)c(O)c3)cnc(N3CCC(NCc4ccc(/C=C/C(=O)NO)cc4)CC3)c2C#N)cc1F [Example 116, (E)-3-(4-(1-(3-Cyano-4-(4-cyano-3-fluorophenyl)-5-(3-hydroxy-4-(trifluoromethoxy)phenyl)pyridin-2-yl)piperidin-4-yl)amino)methyl) phenyl)-N-hydroxyacrylamide formate] | 4.89 | 33.8 | 33.8 | 5.59 | 12.7 | 82 | 212 | 1.82 |
| COc1ccc(-c2cnc(N3CCC(NCc4ccc(/C=C/C(=O)NO)s4)CC3)c(C#N)c2-c2ccc(C#N)c(F)c2)cc1O [Example 105, (E)-3-(5-(((1-(3-Cyano-4-(4-cyano-3-fluorophenyl)-5-(3-hydroxy-4-methoxyphenyl)pyridin-2-yl)piperidin-4-yl)amino)methyl)thiophen-2-yl)-N-hydroxyacrylamide formate] | 4.48 | 124 | 102 | 120 | 114 | 317 | 185 | 1.24 |
| COc1ccc(-c2cnc(N3CCC(NCc4cnc(/C=C/C(=O)NO)cn4)CC3)c(C#N)c2-c2ccc(C#N)c(F)c2)cc1O [Example 133, (E)-3-(5-(((1-(3-Cyano-4-(4-cyano-3-fluorophenyl)-5-(3-hydroxy-4-methoxyphenyl)pyridin-2-yl)piperidin-4-yl)amino)methyl)pyrazin-2-yl)-N-hydroxyacrylamide trifluoroacetate] | 5.42 | 45.8 | 25.5 | 1.45 | 11.8 | 128 | 140 | 22 |
| COc1ccc(-c2cnc(N3CCC(NCc4ccc(/C=C/C(=O)NO)cc4)CC3)c(C#N)c2-c2ccc([N+](=O)[O-])cc2)cc1O [Example 150, (E)-3-(4-(((1-(3-Cyano-5-(3-hydroxy-4-methoxyphenyl)-4-(4-nitrophenyl)pyridin-2-yl)piperidin-4-yl)amino)methyl)phenyl)-N-hydroxyacrylamide formate] | 5.53 | 9.84 | 16.9 | 0.21 | 1.3 | 9.26 | 89.3 | 0.59 |
| COc1ccc(-c2cnc(N3CCC(C)(NCc4ccc(/C=C/C(=O)NO)cc4)CC3)c(C#N)c2-c2ccc(C#N)c(F)c2)cc1O [Example 44, (E)-3-(4-(((1-(3-Cyano-4-(4-cyano-3-fluorophenyl)-5-(3-hydroxy-4-methoxyphenyl)pyridin-2-yl)-4-methylpiperidin-4-yl)amino)methyl)phenyl)-N-hydroxyacrylamide formate] | 16.1 | 139 | 150 | 45.8 | 27.9 | 567 | 188 | 2.58 |
| COc1ccc(-c2cnc(N3CCC(NCc4cccc(/C=C/C(=O)NO)c4)CC3)c(C#N)c2-c2ccc(C#N)c(F)c2)cc1O [Example 114, (E)-3-(3-(3-Cyano-4-(4-cyano-3-fluorophenyl)-5-(3-hydroxy-4-methoxyphenyl)pyridin-2-yl)piperidin-4-yl)amino)methyl) phenyl)-N-hydroxyacrylamide formate] | 9.4 | 155 | 78.2 | 178 | 175 | 391 | 571 | 0.97 |
| N#Cc1ccc(-c2c(-c3ccc(Br)c(O)c3)cnc(N3CCC(NCc4ccc(/C=C/C(=O)NO)cc4)CC3)c2C#N)cc1F [Example 127, (E)-3-(4-(((1-(5-(4-Bromo-3-hydroxyphenyl)-3-cyano-4-(4-cyano-3-fluorophenyl)pyridin-2-yl)piperidin-4-yl)amino)methyl)phenyl)-N-hydroxyacrylamide formate] | 2.65 | 15.4 | 8.85 | 5.82 | 12.4 | 15.5 | 423 | 1.2 |
| COc1ccc(-c2sc(C(=O)N3CCC(NCc4ccc(/C=C/C(=O)NO)cc4)CC3)cc2-c2ccc(C#N)c(F)c2)cc1O [Example 33, (E)-3-(4-(((1-(4-(4-cyano-3-fluorophenyl)-5-(3-hydroxy-4-methoxyphenyl)thiophene-2-carbonyl)piperidin-4-yl)amino)methyl)phenyl)-N-hydroxyacrylamide hydrochloride] | 140 | 470 | 186 | 56.4 | 34.2 | 1980 | 182 | 3.71 |
| N#Cc1ccc(-c2c(-c3ccc(O)c(O)c3)cnc(N3CCC(NCc4ccc(/C=C/C(=O)NO)cc4)CC3)c2C#N)cc1F [Example 137, (E)-3-(4-(((1-(3-Cyano-4-(4-cyano-3-fluorophenyl)-5-(3,4-dihydroxyphenyl)pyridin-2-yl)piperidin-4-yl)amino)methyl)phenyl)-N-hydroxyacrylamide hydrochloride] | 5.43 | 22.9 | 7.01 | 0.52 | 6.04 | 63.5 | 107 | 27.8 |
| COc1ccc(-c2cnc(N3CCC(NCc4ccc(/C=C/C(=O)NO)cn4)CC3)c(C#N)c2-c2ccc(C#N)c(F)c2)cc1O [Example 104, (E)-3-(6-((1-(3-Cyano-4-(4-cyano-3-fluorophenyl)-5-(3-hydroxy-4-methoxyphenyl)pyridin-2-yl)piperidin-4-yl)amino)methyl) pyridin-3-yl)-N-hydroxyacrylamide formate] | 6.58 | 16.9 | 2.29 | 5.3 | 10.7 | 24.8 | 70.1 | 0.71 |
| COc1ccc(-c2cnc(N3CCC(NCc4ccc(/C=C/C(=O)NO)cc4)CC3)c(C)c2-c2ccc(C#N)c(F)c2)cc1O [Example 144, (E)-3-(4-(((1-(4-(4-Cyano-3-fluorophenyl)-5-(3-hydroxy-4-methoxyphenyl)-3-methylpyridin-2-yl)piperidin-4-yl)amino)methyl)phenyl)-N-hydroxyacrylamide hydrochloride] | 11.2 | 8.4 | 11.2 | 0.21 | 0.86 | 9.28 | 91.6 | 1.07 |
| N#Cc1ccc(-c2c(-c3ccc(OC(F)F)c(O)c3)cnc(N3CCC(NCc4ccc(/C=C/C(=O)NO)cc4)CC3)c2C#N)cc1F [Example 124, (E)-3-(4-(((1-(3-Cyano-4-(4-cyano-3-fluorophenyl)-5-(4-(difluoromethoxy)-3-hydroxyphenyl)pyridin-2-yl))piperidin-4-yl)amino)methyl) phenyl)-N-hydroxyacrylamide formate] | 3.34 | 20.6 | 18.3 | 3.95 | 7.69 | 30.5 | 179 | 1.63 |
| COc1ccc(-c2cnc(N3CCC(NCc4ccc(/C=C/C(=O)NO)c(OC)c4)CC3)c(C#N)c2-c2ccc(C#N)c(F)c2)cc1O [Example 108, (E)-3-(4-(((1-(3-Cyano-4-(4-cyano-3-fluorophenyl)-5-(3-hydroxy-4-methoxyphenyl)pyridin-2-yl)piperidin-4-yl)amino)methyl)-2-methoxyphenyl)-N-hydroxyacrylamide formate] | 4.4 | 13.8 | 16 | 25.8 | 26.6 | 28.6 | 93.1 | 2.3 |
